Source: US20180162862A1 (President and Fellows of Harvard College, priority 2015, published 2018)
Values after ≈ are worked out from the molar mass of the structure shown. Where two headings read alike, the source gives them in different places.

Key:
[1] = target: S. aureus SgtB (Staphylococcus aureus, UniProt Q99T05); test: Dose-dependent displacement of probe CMG121 from S. aureus SgtB by fluorescence polarization; type: binding; set-up: made in house
Description: I. Dose-Dependent Displacement of CMG121 from S. aureus SgtB by Fluorescence Polarization
A black 384 well plate (Corning NBS Low Volume No. 3820) was filled (10 μL per well) with an equilibrated solution containing 10 mM TRIS (pH=8.0), 100 mM NaCl, 75 nM CMG121, and 1.0-1.5 μM S. aureus SgtB (depending on protein batch). Due to presence of 8 mM CHAPS detergent in the buffer of the S. aureus SgtB stock, the final assay solution contains 100-160 μM CHAPS. Using an HP D300 Digital Dispenser, for each compound a 1/1 dilution series (12 wells) of the primary hit compound in DMSO (normalized to 1 μL with DMSO) was prepared and added to the aforementioned assay solution. The plate was incubated at 4° C. for 30 min and read with a Perkin Elmer EnVision microplate reader (FP-read out, excitation: 480 nm; emission: 535 nm).
FIGS. 10A-E show values of reduction of fluorescence polarization for exemplified compounds. […] In the primary assay, FP was read after 30 min at 4° C., compound concentration was ca. 100 μM, and 90% reduction in FP was threshold for scoring hits (Gampe et al., J. Am. Chem. Soc. 2013, 135 (10), 3776-3779; U.S. Provisional Patent Application, U.S. Ser. No. 61/621,229, filed on Apr. 6, 2012; International Application No. PCT/US2013/030800 filed on Mar. 13, 2013).
The values were determined in two independent experiments. IC50=10 μM; Hill slope: −0.92.

[2] = test system: S. aureus ATCC 43300; test: MIC test according to CLSI M7-A9, S. aureus ATCC 43300; type: cell-based; conditions: Staphylococcus aureus, read-out: S. aureus ATCC 43300 MIC at 24 h
In short: (§1)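 Per CLSI M7-A9, DMSO stocks diluted in cation-adjusted Mueller Hinton broth, plates incubated 24 h at 37 °C in air. MIC is the lowest concentration giving complete inhibition of visible growth, read visually and at 600 nm.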

[3] = test system: S. aureus ATCC 29213; test: MIC test according to CLSI M7-A9, S. aureus ATCC 29213; type: cell-based; conditions: Staphylococcus aureus
In short: as §1

[4] = test system: H. influenzae ATCC 49247; test: MIC test according to CLSI M7-A9, H. influenzae ATCC 49247; type: cell-based; conditions: Haemophilus influenzae, ATCC49247; CLSI M7-A9, Haemophilus Test Medium, 24 h
Description: MIC Test (H. influenzae ATCC 49247)
Susceptibility testing of H. influenzae ATCC 49247 was performed according to Clinical Laboratory Standard Institute (CLSI) guidelines M7-A9. Test articles were stored at room temperature prior to use, then dissolved in filtered sterile DMSO. Stock DMSO solutions were diluted further in Haemophilus Test Medium (HTM) to provide appropriate test concentrations. Cultures of H. influenzae ATCC 49247 were added in accordance with CLSI guidelines and plates incubated at 37° C. in air for 24 h. Endpoints were determined visually (and by spectrophotometer at 600 nm) and the minimum inhibitory concentration (MIC) defined as the lowest concentration of test articles resulting in complete inhibition of visible bacterial growth.

[5] = test system: MSSA Newman; test: MIC test in TSB medium with MTT staining, MSSA Newman; type: cell-based, Staphylococcus aureus; conditions: Staphylococcus aureus
Description: MIC Test (Methicillin Susceptible Staphylococcus aureus (MSSA Newman))
Overnight cultures of MSSA Newman were grown up in TSB medium at 37° C. The cultures obtained were normalized with TSB to OD600=0.6 and diluted 100-fold. 1.5 μL of a dilution series of Example Compounds in DMSO (100×, in duplicate), and the diluted bacterial culture (150 μL) was added to wells of a sterile, clear 96 well plate and incubated at 37° C.

[6] = test system: S. aureus Newman; test: MIC test according to CLSI M7-A9, S. aureus Newman; type: cell-based; conditions: Staphylococcus aureus, CLSI M7-A9, CAMHB, 24 h (Table 3), read-out: S. aureus ATCC Newman MIC
In short: as §1

[7] = ATCC43300, CLSI M7-A9, CAMHB, 24 h (Table 2)
[8] = ATCC29213, CLSI M7-A9, CAMHB, 24 h (Table 2), read-out: S. aureus ATCC 29213 MIC at 24 h
[9] = TSB, 37° C., MTT staining after 7 h, read-out: MSSA Newman MIC at 7 h
[10] = TSB, 37° C., MTT staining after 24 h, read-out: MSSA Newman MIC at 24 h

Sequence of S. aureus SgtB (Q99T05 68-269): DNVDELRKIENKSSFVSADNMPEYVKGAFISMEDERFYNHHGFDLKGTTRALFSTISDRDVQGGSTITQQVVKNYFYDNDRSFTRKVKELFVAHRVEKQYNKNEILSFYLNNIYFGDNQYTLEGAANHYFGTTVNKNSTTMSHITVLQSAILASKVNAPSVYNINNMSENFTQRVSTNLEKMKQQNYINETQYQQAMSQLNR

Structure (SMILES)	MIC [2, 7] [µg/mL]	MIC [3, 8] [µg/mL]	MIC [5, 9] [µg/mL]	MIC [5, 10] [µg/mL]	further results
CNc1nc(-c2ccc(C(C)(C)C)cc2)nc2cc(=O)[nH]n12 [Entry 16]					IC50 [1]: > 200 µM
CN1CCC(Nc2nc(-c3ccc(C(C)(C)C)cc3)nc3cc(=O)[nH]n23)CC1 [Example 19, 2-(4-tert-butylphenyl)-4-[(1-methylpiperidin-4-yl)amino]-6H,7H-pyrazolo[1,5-a][1,3,5]triazin-7-one]	64 (≈ 168 µM)	64 (≈ 168 µM)			MIC [4]: 64 µg/mL (≈ 168 µM)
CC(C)(C)c1ccc(-c2nc(N)n3[nH]c(=O)cc3n2)cc1 [Entry 17]					IC50 [1]: > 200 µM
Cc1cc(OCCCNc2nc(-c3cc[n+]([O-])cc3)nc3cc(=O)[nH]n23)ccc1Cl [Example 126, 4-(4-{[3-(4-chloro-3-methylphenoxy)propyl]amino}-7-oxo-6H,7H-pyrazolo[1,5-a][1,3,5]triazin-2-yl)pyridin-1-ium-1-olate]					MIC [4]: 1 µg/mL (≈ 2.34 µM)
COc1ccc(CNc2nc(-c3ccc(C(C)(C)C)cc3)nc3cc(=O)[nH]n23)cc1 [Entry 14]					IC50 [1]: > 200 µM
Cc1cc(OCCCSc2nc(-c3ccc(C(C)(C)C)cc3)nc3cc(=O)[nH]n23)ccc1Cl [Example 2, 2-(4-tert-butylphenyl)-4-{[3-(4-chloro-3-methylphenoxy)propyl]sulfanyl}-6H,7H-pyrazolo[1,5-a][1,3,5]triazin-7-one]					MIC ([2]; ATCC43300, 24 h): > 32 µg/mL; MIC ([3]; ATCC29213, 24 h, read-out: S. aureus ATCC 29213 MIC at 24 h): > 32 µg/mL; MIC ([5]; 7 h, read-out: MSSA Newman MIC at 7 h): > 100 µg/mL
Cc1ccc(-c2nc(NCCCNc3ccc(Cl)c(C)c3)n3[nH]c(=O)cc3n2)cc1 [Example 68, 4-({3-[(4-chloro-3-methylphenyl)amino]propyl}amino)-2-(4-methylphenyl)-6H,7H-pyrazolo[1,5-a][1,3,5]triazin-7-one]	8 (≈ 18.9 µM)	16 (≈ 37.8 µM)	1.6 (≈ 3.78 µM)	3.1 (≈ 7.33 µM)	
CC(C)(C)c1ccc(-c2nc(NCCCOC3CCCCC3)n3[nH]c(=O)cc3n2)cc1 [Example 31, 2-(4-tert-butylphenyl)-4-{[3-(cyclohexyloxy)propyl]amino}-6H,7H-pyrazolo[1,5-a][1,3,5]triazin-7-one]	16 (≈ 37.8 µM)	8 (≈ 18.9 µM)			MIC [4]: 32 µg/mL (≈ 75.5 µM)
Cc1ccc(OCCCNc2nc(-c3ccc(C(C)(C)C)cc3)nc3cc(=O)[nH]n23)cc1C [Example 49, 2-(4-tert-butylphenyl)-4-{[3-(3,4-dimethylphenoxy)propyl]amino}-6H,7H-pyrazolo[1,5-a][1,3,5]triazin-7-one]	16 (≈ 35.9 µM)	32 (≈ 71.8 µM)	3.1 (≈ 6.96 µM)	6.2 (≈ 13.9 µM)	
Cc1ccnc(C)c1OCCCNc1nc(-c2ccc(C(C)(C)C)cc2)nc2cc(=O)[nH]n12 [Example 53, 2-(4-tert-butylphenyl)-4-({3-[(2,4-dimethylpyridin-3-yl)oxy]propyl}amino)-6H,7H-pyrazolo[1,5-a][1,3,5]triazin-7-one]	8 (≈ 17.9 µM)	> 64	> 100	> 100	
O=c1[nH]n2c(=S)[nH]c(C34CC5CC(CC(C5)C3)C4)nc2c1Cc1ccccc1 [Example 121, 2-(adamantan-1-yl)-8-benzyl-4-sulfanylidene-3H,4H,6H,7H-pyrazolo[1,5-a][1,3,5]triazin-7-one]					MIC ([3]; ATCC29213, CLSI M7-A9, CAMHB, 24 h (Table 3), read-out: S. aureus ATCC 29213 MIC): 4 µg/mL (≈ 10.2 µM); MIC [4]: 8 µg/mL (≈ 20.4 µM); MIC [6]: 4 µg/mL (≈ 10.2 µM)
CC(C)(C)c1ccc(-c2nc(NCCCOc3cnc(Cl)nc3)n3[nH]c(=O)cc3n2)cc1 [Example 52, 2-(4-tert-butylphenyl)-4-({3-[(2-chloropyrimidin-5-yl)oxy]propyl}amino)-6H,7H-pyrazolo[1,5-a][1,3,5]triazin-7-one]	> 64	> 64	12.5 (≈ 27.5 µM)	25 (≈ 55.1 µM)	
CC(C)(C)c1ccc(-c2nc(NCCCCc3ccccc3)n3[nH]c(=O)cc3n2)cc1 [Example 29, 2-(4-tert-butylphenyl)-4-[(4-phenylbutyl)amino]-6H,7H-pyrazolo[1,5-a][1,3,5]triazin-7-one]	16 (≈ 38.5 µM)	8 (≈ 19.3 µM)	1.6 (≈ 3.85 µM)	3.1 (≈ 7.46 µM)	
Cc1cccc(OCCCNc2nc(-c3ccc(C(C)(C)C)cc3)nc3cc(=O)[nH]n23)c1C [Example 30, 2-(4-tert-butylphenyl)-4-{[3-(2,3-dimethylphenoxy)propyl]amino}-6H,7H-pyrazolo[1,5-a][1,3,5]triazin-7-one]	> 32	> 32	1.6 (≈ 3.59 µM)	6.2 (≈ 13.9 µM)	
Cc1cc(OCCCNc2nc(-c3ccc(C(C)(C)C)cc3)nc3cc(=O)[nH]n23)ccc1Cl [Example 14, 2-(4-tert-butylphenyl)-4-{[3-(4-chloro-3-methylphenoxy)propyl]amino}-6H,7H-pyrazolo[1,5-a][1,3,5]triazin-7-one]	4 (≈ 8.58 µM)	4 (≈ 8.58 µM)	3.3 (≈ 7.08 µM)	3.3 (≈ 7.08 µM)	
CC(C)(C)c1ccc(-c2nc(O)n3[nH]c(=O)cc3n2)cc1 [Entry 18]					IC50 [1]: 34 µM
CCCC(C)Nc1nc(-c2ccc(C(C)(C)C)cc2)nc2cc(=O)[nH]n12 (stereo not shown) [Example 28, 2-(4-tert-butylphenyl)-4-[(pentan-2-yl)amino]-6H,7H-pyrazolo[1,5-a][1,3,5]triazin-7-one]	16 (≈ 45.3 µM)	16 (≈ 45.3 µM)	3.1 (≈ 8.77 µM)	6.2 (≈ 17.5 µM)	
COc1ccc(CNc2nc(-c3ccc(C(C)(C)C)cc3)nc3cc(=O)[nH]n23)cc1 [Example 15, 2-(4-tert-butylphenyl)-4-{[(4-methoxyphenyl)methyl]amino}-6H,7H-pyrazolo[1,5-a][1,3,5]triazin-7-one]	8 (≈ 19.8 µM)	8 (≈ 19.8 µM)	3.1 (≈ 7.68 µM)	12.5 (≈ 31 µM)	
Cc1ccc(CSc2nc(-c3ccc(C(C)(C)C)cc3)nc3cc(=O)[nH]n23)cc1 [Entry 9]					IC50 [1]: 112 µM
Cc1cc(NCCCNc2nc(-c3ccc(C(C)(C)C)cc3)nc3cc(=O)[nH]n23)ccc1Cl [Example 47, 2-(4-tert-butylphenyl)-4-({3-[(4-chloro-3-methylphenyl)amino]propyl}amino)-6H,7H-pyrazolo[1,5-a][1,3,5]triazin-7-one]	4 (≈ 8.6 µM)	2 (≈ 4.3 µM)	3.1 (≈ 6.67 µM)	3.1 (≈ 6.67 µM)	
